Data as given in patent US20240197674A1, “NOVEL USE OF 3-(4-(BENZYLOXY)PHENYL)HEX-4-INOIC ACID DERIVATIVE” (Hyundai Pharm Co., Ltd., priority 2021, published 2024).
“Also recorded” adds a separate entry of the source.

How the values were obtained:
Format in all cases: cell-based
[1] = test system: C2C12 cells; test: Expression of myogenic factors MyoG and MyHC by western blotting in C2C12 myoblasts; details: differentiation medium (2% horse serum DMEM), 3 days
Method: (§1) C2C12 cells, which are myoblasts, were cultured and treated with a mixture of Compound A in a differentiation medium [2% horse serum (Cat No. 16050, Invitrogen, USA)-containing DMEM (Cat No. 11965, Invitrogen)] for 3 days. Afterward, the change in expression of myogenin (myogenic factor 4, MyoG) and a myosin heavy chain (MyHC), which are known as myogenic factors, was confirmed by western blotting. As primary antibodies, a MyoG antibody (Santa Cruz, sc-12732), a MyHC antibody (Santa Cruz, sc-32732), and a beta-actin antibody (Santa Cruz, sc-47778) were used. As a result, it can be confirmed that the higher the treatment concentration of Compound A, the higher the expression of MyoG and MyHC (FIG. 1).
(§2) Since Compound A is known as a G-protein-coupled receptor40 agonist (GPR40 agonist), it was confirmed whether the myogenesis promoting effect (Experimental Example 1) of Compound A is a general effect of GPR40 agonists. Specifically, experiments were conducted in the same manner as in Experimental Examples 1 and 2, except that C2C12 cells were treated with LY2922470 instead of Compound A. As a result of the experiments, it can be seen that, when the C2C12 cells were treated with LY2922470, the expression of myogenic factors MyoG and MyHC was inhibited (FIG. 7), the MyHC positive area decreased, and myotube formation was inhibited (FIG. 8).

[2] = test system: C2C12 cells; test: MyHC immunohistochemistry: MyHC positive area, myotube thickness and myotube formation; details: C2C12 myoblasts, differentiation medium, 3 days
Method: as §1
In addition, C2C12 cells were treated with Compound A in the same manner as above, and then immunohistochemistry was performed with a MyHC antibody. As a result, it was confirmed that, as the treatment concentration of Compound A increases, the MyHC positive area and myotube thickness increase (FIG. 2).
as §2

[3] = test system: C2C12 cells; test: Bax/Bcl2 ratio by western blotting after palmitate treatment; details: with palmitate in growth medium, 24 hours, versus palmitate only
Method: (§3) Sarcopenia is known to be accelerated by diabetes, obesity, or inflammatory responses. Accordingly, it was confirmed whether Compound A can inhibit muscle loss even under the above conditions as follows. Palmitate (PA; P9767, Sigma-Aldrich, USA) was dissolved in ethanol and then mixed with bovine serum albumin (BSA; A7888, Sigma-Aldrich) dissolved in DMEM at a molar ratio of 6:1, followed by conjugation at 60° C. for 1 hour. Cells were treated with the resulting conjugate.
(§4) After mixing Compound A and the palmitate in a growth medium (10% FBS (Cat No. 16000, Invitrogen)-containing DMEM), C2C12 cells were treated with the resulting mixture for 24 hours, and then a Bax/Bcl2 ratio was confirmed by western blotting and cell viability was assessed using a cell viability assay kit (Dozen, EZ-3000). Primary antibodies used herein were the Bax antibody (Santa Cruz, sc-7480) and Bcl2 antibody (Santa Cruz, sc-7382). Bax is a protein inducing apoptosis, and Bcl2 is a protein inhibiting apoptosis by hindering the migration of Bax to mitochondria.

[4] = test system: C2C12 cells; test: Cell viability assay kit after palmitate treatment; details: with palmitate in growth medium, 24 hours, versus palmitate only
Method: as §3, §4, §2

[5] = test system: C2C12 cells; test: MyoG and MyHC expression after palmitate treatment and 3 days of differentiation; details: with palmitate 24 hours, then 3 days differentiation, versus decrease by palmitate only
Method: as §3
(§5) Compound A and the palmitate were mixed in a growth medium (10% FBS-containing DMEM), and C2C12 cells were treated with the resulting mixture. After 24 hours, the medium was exchanged with a fresh […] to induce differentiation for 3 days, and after 3 days, the cells were collected to confirm the expression of MyoG and MyHC, and the changes in MyHC positive area and myotube thickness.

[6] = test system: C2C12 cells; test: MyHC positive area and myotube thickness after palmitate treatment and 3 days of differentiation; details: with palmitate 24 hours, then 3 days differentiation, versus decrease by palmitate only
Method: as §3, §5

[7] = test system: C2C12 cells; test: Atrogin-1 expression in differentiated C2C12 myotubes treated with palmitate; details: C2C12 differentiated 6 days into myotubes, with palmitate in differentiation medium, versus palmitate only
Method: as §3
(§6) Atrogin-1 is a type of E3 ubiquitin ligase and a marker associated with muscular atrophy, and it is known that, as its gene expression increases, muscle is broken down. To confirm the change in atrogin-1 expression by Compound A, C2C12 cells were cultured in a differentiation medium for 6 days to induce differentiation into myotubes, and the differentiated cells were treated with a mixture of Compound A and palmitate in a differentiation medium. Afterward, an expression level was confirmed using an atrogin-1 antibody (Abnova, PAB15627), and cell viability was measured.

[8] = test system: C2C12 cells; test: Cell viability of differentiated C2C12 myotubes treated with palmitate; details: C2C12 differentiated 6 days into myotubes, with palmitate in differentiation medium, versus palmitate only
Method: as §3, §6

[9] = immunohistochemistry with MyHC antibody

CC#C[C@@H](CC(=O)O)c1ccc(OCc2cccc(C3=CCC4(CC3)OCCO4)c2)cc1 [Compound A, (3S)-3-(4-(3-(1,4-dioxaspiro[4,5]des-7-en-8-yl)benzyloxy)phenyl)hex-4-inoic acid]
expression of MyHC [1]: higher | expression of MyoG [1]: higher | MyHC positive area [2, 9]: increase | myotube thickness [2, 9]: increase | Bax/Bcl2 ratio [3]: decreased | cell viability (apoptosis caused by palmitate) [4]: increased; also recorded: inhibited apoptosis | expression of MyHC [5]: reversed | expression of MyoG [5]: reversed | MyHC positive area [6]: reversed | myotube thickness [6]: reversed | atrogin-1 expression [7]: decreased | cell viability [8]: recovered

CC#C[C@@H](CC(=O)O)c1ccc(OCc2ccc(CN3CCCc4cccc(OC)c43)s2)cc1 [LY2922470, reference compound]
expression of MyHC [1]: inhibited | expression of MyoG [1]: inhibited | myotube formation [2]: inhibited | MyHC positive area [2, 9]: decreased | cell viability (apoptosis caused by palmitate) [4]: did not inhibit apoptosis

CC#C[C@@H](CC(=O)O)c1ccc(OCc2cccc(C3=CCC4(CC3)OCCO4)c2)cc1 [compound of Formula 1, (3S)-3-(4-(3-(1,4-dioxaspiro[4,5]des-7-en-8-yl)benzyloxy)phenyl)hex-4-inoic acid]
expression of MyHC [1]: increases | expression of MyoG [1]: increases | myotube formation [2]: promoted | Bax/Bcl2 ratio [3]: reversed | cell viability (apoptosis caused by palmitate) [4]: reversed | expression of MyHC [5]: reversed | expression of MyoG [5]: reversed | MyHC positive area [6]: reversed | myotube thickness [6]: reversed
